Columns and labels:
[1] = test system: ABUTH; assay: Pre-emergence herbicidal action against ABUTH; type: in vivo, Abutilon theophrasti; details: for Pre-emergence action against ABUTH (herbicidal activity): 80 g/ha, scored visually after 3 weeks vs untreated controls (100% = plants have died, 0% = like control plants); for Pre-emergence action against ABUTH (herbicidal activity in percent): dosage 20 g/ha, scored visually after 3 weeks vs untreated controls, 100% = plants have died, 0% = like control plants
How it was run: (§1)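 Seeds sown in sandy loam, soil-covered; compound sprayed on soil surface pre-emergence. Application: WP/EC, 600–800 l/ha, 0.2% wetting agent. Readout: visual % damage at 3 weeks.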

[2] = test system: ABUTH; assay: Post-emergence herbicidal action against ABUTH; type: in vivo, Abutilon theophrasti; details: visual assessment about 3 weeks after treatment vs untreated controls
How it was run: (§2)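 Sandy loam, greenhouse; treatment 2–3 weeks after sowing, one-leaf stage. Aqueous suspension or emulsion from WP/EC sprayed on foliage (600–800 l/ha, 0.2% wetting agent). Readout: visual % action, ~3 weeks.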

[3] = test system: DIGSA; assay: Pre-emergence herbicidal action against DIGSA; type: in vivo, Digitaria sanguinalis
How it was run: as §1

[4] = test system: ECHCG; assay: Post-emergence herbicidal action against ECHCG; type: in vivo, Echinochloa crus-galli
How it was run: as §2

[5] = test system: PHBPU; assay: Post-emergence herbicidal action against PHBPU; type: in vivo, Pharbitis purpurea
How it was run: as §2

[6] = test system: MATIN; assay: Post-emergence herbicidal action against MATIN; type: in vivo, Matricaria inodora
How it was run: as §2

[7] = test system: SETVI; assay: Pre-emergence herbicidal action against SETVI; type: in vivo, Setaria viridis
How it was run: as §1

[8] = test system: AMARE; assay: Post-emergence herbicidal action against AMARE; type: in vivo, Amaranthus retroflexus; details: 20 g/ha, visual assessment about 3 weeks after treatment, 100% = plants have died, 0% = like control plants
How it was run: as §2

[9] = test system: VERPE; assay: Post-emergence herbicidal action against VERPE; type: in vivo, Veronica persica
How it was run: as §2

[10] = test system: POLCO; assay: Pre-emergence herbicidal action against POLCO; type: in vivo, Polygonum convolvulus
How it was run: as §1

[11] = test system: MATIN; assay: Pre-emergence herbicidal action against MATIN; type: in vivo, Matricaria inodora
How it was run: as §1

[12] = test system: ALOMY; assay: Post-emergence herbicidal action against ALOMY; type: in vivo, Alopecurus myosuroides; details: dosage 20 g/ha, visual assessment about 3 weeks after treatment vs untreated controls
How it was run: as §2

[13] = test system: ECHCG; assay: Pre-emergence herbicidal action against ECHCG; type: in vivo, Echinochloa crus-galli; details: 80 g/ha
How it was run: as §1

[14] = test system: VIOTR; assay: Pre-emergence herbicidal action against VIOTR; type: in vivo, Viola tricolor
How it was run: as §1

[15] = test system: AMARE; assay: Pre-emergence herbicidal action against AMARE; type: in vivo, Amaranthus retroflexus
How it was run: as §1

[16] = test system: AVEFA; assay: Pre-emergence herbicidal action against AVEFA; type: in vivo, Avena fatua; details: 80 g/ha, pre-emergence
How it was run: as §1

[17] = test system: PHBPU; assay: Pre-emergence herbicidal action against PHBPU; type: in vivo, Pharbitis purpurea; details: dosage 80 g/ha
How it was run: as §1

[18] = test system: DIGSA; assay: Post-emergence herbicidal action against DIGSA; type: in vivo, Digitaria sanguinalis; details: 20 g/ha
How it was run: as §2

[19] = test system: ALOMY; assay: Pre-emergence herbicidal action against ALOMY; type: in vivo, Alopecurus myosuroides; details: 80 g/ha, pre-emergence, scored visually after 3 weeks vs untreated controls (100% = plants have died, 0% = like control plants)
How it was run: as §1

[20] = test system: AVEFA; assay: Post-emergence herbicidal action against AVEFA; type: in vivo, Avena fatua; details: 20 g/ha, visual assessment about 3 weeks after treatment, 100% = plants have died, 0% = like control plants
How it was run: as §2

[21] = test system: VIOTR; assay: Post-emergence herbicidal action against VIOTR; type: in vivo, Viola tricolor
How it was run: as §2

[22] = test system: SETVI; assay: Post-emergence herbicidal action against SETVI; type: in vivo, Setaria viridis
How it was run: as §2

[23] = test system: VERPE; assay: Pre-emergence herbicidal action against VERPE; type: in vivo, Veronica persica; details: dosage 80 g/ha
How it was run: as §1

[24] = 20 g/ha, scored visually after 3 weeks vs untreated controls, 100% = plants have died, 0% = like control plants
[25] = 80 g/ha, scored visually after 3 weeks vs untreated controls (100% = plants have died, 0% = like control plants)

Row | Compound | Pre-emergence action against ABUTH (herbicidal activity) [1] [%] | Pre-emergence action against ABUTH (herbicidal activity in percent) [1] [%] | Post-emergence action against ABUTH in % ([2]; dosage 20 g/ha) [%] | Pre-emergence action against DIGSA in % ([3]; dosage 20 g/ha) [%] | Pre-emergence action against DIGSA in % ([3]; dosage 80 g/ha) [%] | Post-emergence action against MATIN in % ([6]; dosage 5 g/ha) [%] | Post-emergence action against MATIN in % ([6]; dosage 20 g/ha) [%] | Pre-emergence action against SETVI in % ([7]; dosage 80 g/ha) [%] | Post-emergence action at 20 g/ha against AMARE in % [8] [%] | Post-emergence action against VERPE in % ([9]; 20 g/ha) [%] | Pre-emergence action against POLCO in % ([10]; dosage 80 g/ha) [%] | Pre-emergence action against MATIN in % ([11]; dosage 20 g/ha) [%] | Pre-emergence action against MATIN in % ([11]; dosage 80 g/ha) [%] | Post-emergence action against ALOMY in % [12] [%] | Pre-emergence action against ECHCG in % [13] [%] | Pre-emergence action against VIOTR in % ([14]; dosage 20 g/ha) [%] | Pre-emergence action against VIOTR in % ([14]; dosage 80 g/ha) [%] | Pre-emergence action against AMARE in % [15, 24] [%] | Pre-emergence action against AMARE in % [15, 25] [%] | Pre-emergence action against PHBPU in % [17] [%] | further results
1 | CCn1nnnc1NC(=O)c1ccc(C(F)(F)F)c(C(=O)NC(C)C2CC2)c1C (centres unmarked) [Example 2-31] | 100 | 100 | 80 | 100 | 100 | 80 | 80 | 100 | 80 | 80 | 80 | 100 | 100 | 80 | 100 | 100 | 100 | 100 | 100 | 80 | Post-emergence action against ECHCG in % ([4]; dosage 5 g/ha): 80%; Post-emergence action against ECHCG in % ([4]; dosage 20 g/ha): 90%; Post-emergence action against PHBPU in % ([5]; dosage 5 g/ha): 80%; Post-emergence action against PHBPU in % ([5]; dosage 20 g/ha): 90%; Pre-emergence action against POLCO in % ([10]; dosage 20 g/ha): 80%; Pre-emergence action against AVEFA in % [16]: 100%; Post-emergence action against DIGSA [18]: 80%; Pre-emergence action against ALOMY (herbicidal activity) [19]: 80%; Post-emergence action at 20 g/ha against AVEFA in % [20]: 80%
2 | CCc1c(C(=O)Nc2nnnn2CC)ccc(C(F)(F)F)c1C(=O)NC [Example 2-271] | 100 | 100 | 100 | 100 | 100 | 100 | 100 | 100 | 100 | 90 | 80 | 100 | 100 | 100 | 100 | 100 | 100 | 100 | 100 | 100 | Post-emergence action against ABUTH in % ([2]; dosage 5 g/ha): 100%; Pre-emergence action against SETVI in % ([7]; dosage 20 g/ha): 100%; Post-emergence action against VERPE in % ([9]; 5 g/ha): 80%; Post-emergence action against VIOTR in % ([21]; 5 g/ha): 80%; Post-emergence action against VIOTR in % ([21]; 20 g/ha): 80%; Post-emergence action against SETVI in % ([22]; dosage 5 g/ha): 100%; Post-emergence action against SETVI in % ([22]; dosage 20 g/ha): 100%; Pre-emergence action against VERPE in % [23]: 100%; Pre-emergence action against ALOMY (herbicidal activity) [19]: 80%; Post-emergence action at 20 g/ha against AVEFA in % [20]: 80%
